Measured values taken from the supplement of paper PMC5412046.
Counter-ions that a name gives are not always drawn.

Key:
SB.mhdgc-1 = experiment: AC50 for growth inhibition (viability) (log10 M); higher = less potent; settings: SB.mhdgc-1 (hereditary c.1380delA CDH1 gastric cancer)
Method in brief: (§1)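 A four-parameter fit of viability, normalised to DMSO, gave the log half-maximal activity concentration, and only high-quality curve classes were kept. Cells came from hereditary or sporadic gastric cancer patients, 500 per 1536 well, and were dosed for 48 h at 11 threefold dilutions from a final 46 μM. Readout was CellTiter-Glo luminescence on a ViewLux.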

SB.msgc-1 = experiment: as above; settings: SB.msgc-1 (sporadic gastric cancer)
Method in brief: as §1

| Compound | AC50 for growth inhibition (log10 M) (SB.mhdgc-1) | AC50 for growth inhibition (log10 M) (SB.msgc-1) |
| --- | --- | --- |
| Cc1coc2c1C(=O)C(=O)c1c-2ccc2c1CCCC2(C)C [Tanshinone IIA] | -5.58 | -4.68 |
| COc1cc2c(cc1OC)CN(CCc1ccc(NC(=O)c3cc(OC)c(OC)cc3NC(=O)c3cnc4ccccc4c3)cc1)CC2 [Tariquidar] | -5.03 | -5.08 |
| CCOC(=O)[C@@H](N)Cc1ccc(-c2cc(O[C@H](c3ccc(Cl)cc3-n3ccc(C)n3)C(F)(F)F)nc(N)n2)cc1.O=C(O)CNC(=O)c1ccccc1 [Telotristat etiprate] | -4.78 | -5.03 |
| CCOC(=O)[C@H](CCc1ccccc1)N[C@H]1CS[C@H](c2cccs2)CN(CC(=O)O)C1=O.Cl [Temocapril hydrochloride] | -6.28 | -5.88 |
| COc1cc([C@@H]2c3cc4c(cc3[C@@H](O[C@@H]3O[C@@H]5CO[C@@H](c6cccs6)O[C@H]5[C@H](O)[C@H]3O)[C@H]3COC(=O)[C@H]23)OCO4)cc(OC)c1O [Teniposide] | -7.13 | -6.03 |
| CC(C)OC(=O)OCOP(=O)(CO[C@H](C)Cn1cnc2c(N)ncnc21)OCOC(=O)OC(C)C.O=C(O)C=CC(=O)O [Tenofovir Disoproxil Fumarate] | -4.68 | -4.78 |
| COc1ccc(C[C@@H](C)[C@@H](C)Cc2ccc(OC)c(OC)c2)cc1OC [Terameprocol] | -5.18 | -5.43 |
| C/C(O)=C(\C#N)C(=O)Nc1ccc(C(F)(F)F)cc1 [Teriflunomide] | -4.63 | -4.78 |
| CCN(CC)CCOc1ccc(Cc2ccccc2)cc1 [Tesmilifene hydrochloride] | -4.48 | -5.18 |
| C/C=C(/C)C(=O)O[C@H]1C(C)=C2[C@H]([C@@H]1OC(=O)CCCCCCC)[C@@](C)(OC(C)=O)C[C@H](OC(=O)CCC)[C@@]1(O)[C@H]2OC(=O)[C@@]1(C)O [Thapsigargin] | -6.98 | -7.43 |
| Cn1cnc2c1c(=O)[nH]c(=O)n2C [Theobromine] | -4.63 | -4.78 |
| O=C(NCc1ccccc1)c1csc(Nc2ccncn2)n1 [Thiazovivin] | -4.78 | -4.78 |
| S=P(N1CC1)(N1CC1)N1CC1 [ThioTEPA] | -5.48 | -5.23 |
| NC/1=N/C2=C([NH]C=N2)C(=S)N1 [Tioguanine] | -5.03 | -5.58 |
| C[N]1C=NC=C1[C@@](N)(C2=CC=C(Cl)C=C2)C3=CC=C4N(C)C(=O)\C=C(\C5=CC=CC(=C5)Cl)C4=C3 [Tipifarnib] | -4.83 | -4.83 |
| O=C1NC(=O)[C@@H](c2cn3c4c(cccc24)CCC3)[C@@H]1c1c[nH]c2ccccc12 [Tivantinib] | -6.48 | -6.23 |
| COc1cc2nccc(Oc3ccc(NC(=O)Nc4cc(C)on4)c(Cl)c3)c2cc1OC [Tivozanib] | -5.28 | -5.58 |
| CCOC(=O)N1c2ccc(C(F)(F)F)cc2[C@@H](N(Cc2cc(C(F)(F)F)cc(C(F)(F)F)c2)C(=O)OC)C[C@H]1CC [Torcetrapib] | -4.73 | -5.18 |
| CN(C)CCOc1ccc(/C(=C(/CCCl)c2ccccc2)c2ccccc2)cc1 [Toremifene] | -4.63 | -4.63 |
| CCC(=O)N1CCN(CC1)C2=C(C=C(C=C2)N3C(=O)\C=C/C4=C3C5=CC(=CC=C5N=C4)C6=CN=C7C=CC=CC7=C6)C(F)(F)F [Torin-1] | -6.63 | -5.13 |
| NC1=NC=C(C=C1)C2=CC=C3N=CC\4=C(N(C(=O)\C=C4)C5=CC(=CC=C5)C(F)(F)F)C3=C2 [Torin-2] | -6.48 | -6.78 |
| CC(C)C[C@@H](C(=O)N[C@H](C(=O)OC1CCCC1)c1ccccc1)[C@H](O)C(=O)NO [Tosedostat] | -5.43 | -4.83 |
| CN1C(=O)C(=C/2N(C(=O)N(C3CC3)C(=O)C2=C1/NC4=CC=C(I)C=C4F)C5=CC=CC(=C5)NC(C)=O)\C [Trametinib] | -5.03 | -6.63 |
| CC(/C=C/C(=O)NO)=C\[C@@H](C)C(=O)c1ccc(N(C)C)cc1 [Trichostatin A] | -5.88 | -6.13 |
| OC[C@H]1O[C@H](C[C@@H]1O)N2/C=C(C(=O)NC2=O)/C(F)(F)F [Trifluridine] | -6.48 | -5.78 |

| Compound | AC50 for growth inhibition (log10 M) (SB.mhdgc-1) | AC50 for growth inhibition (log10 M) (SB.msgc-1) |
| --- | --- | --- |
| CC1=CC2=C(O1)C(=C3OC(=O)\C=C(C)/C3=C2)C [Trioxsalen] | -5.38 | -4.93 |
| CC/1=C(\O)C(=O)\C=C2/C1=C/C=C3\[C@@]2(C)CC[C@@]4(C)[C@@H]5C[C@@](C)(CC[C@]5(C)CC[C@]34C)C(O)=O [Tripterin] | -5.58 | -5.78 |
| O=C(CCCCCCC(=O)Nc1ccc([C@H]2O[C@@H](CSc3nc(-c4ccccc4)c(-c4ccccc4)o3)C[C@@H](c3ccc(CO)cc3)O2)cc1)NO [Tubacin] | -4.73 | -4.58 |
| CN1CCc2c(c3ccccc3n2Cc2ccc(C(=O)NO)cc2)C1 [Tubastatin A] | -4.63 | -4.68 |
| N#CC(=C(/N)Sc1ccccc1N)/C(C#N)=C(\N)Sc1ccccc1N [U-0126] | -5.88 | -4.73 |
| COc1cc2c(NC3CCN(C(C)C)CC3)nc(C3CCCCC3)nc2cc1OCCCN1CCCC1 [UNC-0638] | -5.58 | -4.78 |
| C[C@@H]1CC[C@@]2(CC[C@]3(C)\C(=C/C[C@@H]4[C@@]5(C)CC[C@H](O)C(C)(C)[C@@H]5CC[C@@]34C)[C@@H]2[C@H]1C)C(O)=O [Ursolic acid] | -4.67 | -4.47 |
| COc1cc2c(Nc3ccc(Br)cc3F)ncnc2cc1OCC1CCN(C)CC1 [Vandetanib] | -4.68 | -4.73 |
| CCCC1=NC(=C2[N]1NC(=N\C2=O)/C3=CC(=CC=C3OCC)[S+]([O-])(=O)N4CCN(CC)CC4)C [Vardenafil] | -4.73 | -4.83 |
| C[C@@H]\1COC(=N1)\NC2=CC3=C(C=C2)N=CN=C3NC4=CC(=C(OCC5=NC=CS5)C=C4)Cl [Varlitinib tosylate] | -6.63 | -6.53 |
| CC(=O)O[C@H]1C[C@@H]2CC[C@@H]3[C@H](CC[C@@]4(C)[C@H]3C[C@H]([N+]3(C)CCCCC3)[C@@H]4OC(C)=O)[C@@]2(C)C[C@@H]1N1CCCCC1 [Vecuronium bromide] | -5.93 | -5.58 |
| COC[C@H](c1ccc(C(F)(F)F)cc1)N1CCN(C2(C)CCN(C(=O)c3c(C)ncnc3C)CC2)C[C@H]1C.O=C(O)/C=C\C(=O)O [Vicriviroc] | -5.33 | -4.78 |
| COC1=CC(=CC=C1)C2=CC=C(NC(=O)/C3=C(/CCC3)C(O)=O)C(=C2)F [Vidofludimus] | -5.33 | -4.88 |
| CCOC(=O)\C1=C\[C@]2(CC)CCCN3CCC4=C([C@H]23)[N]1C5=C4C=CC=C5 [Vinpocetine] | -4.93 | -4.63 |
| Cc1c(O)cccc1C(=O)N[C@@H](CSc1ccccc1)[C@H](O)CN1C[C@H]2CCCC[C@H]2C[C@H]1C(=O)NC(C)(C)C [Viracept] | -4.73 | -4.73 |
| CC[C@@H]1C(=O)N(C)c2cnc(Nc3ccc(C(=O)NC4CCC(N5CCN(CC6CC6)CC5)CC4)cc3OC)nc2N1C(C)C (stereo partly drawn) [Volasertib] | -5.08 | -7.03 |
| O=C(CCCCCCC(=O)Nc1ccccc1)NO [Vorinostat] | -5.63 | -5.58 |
| C[C@H](NC(=O)/C(C#N)=C/c1cccc(Br)n1)c1ccccc1 [WP-1066] | -5.43 | -5.48 |
| COC(=O)Nc1ccc(-c2nc(N3CCOCC3)c3cnn(C4CCN(Cc5cccnc5)CC4)c3n2)cc1 [WYE-687] | -7.18 | -4.68 |
| C=CC(=O)Nc1cccc(Oc2nc(Nc3ccc(N4CCN(C)CC4)cc3)ncc2Cl)c1 [WZ-3146] | -5.18 | -5.88 |
| C=CC(=O)Nc1cccc(Oc2nc(Nc3ccc(N4CCN(C)CC4)cc3OC)ncc2Cl)c1 [WZ-4002] | -4.83 | -7.78 |
| C[C@H]([C@H]1C\C(=C(CO)/C(=O)O1)C)[C@H]2CC[C@H]3[C@@H]4C[C@H]5O[C@]56[C@@H](O)\C=C/C(=O)[C@]6(C)[C@H]4CC[C@]23C [Withaferin A] | -5.68 | -5.78 |
| CCN1CCC(n2cc(CNc3cc(Cl)c4ncc(C#N)c(Nc5ccc(F)c(Cl)c5)c4c3)nn2)CC1 [Wyeth Cot inhibitor-2] | -5.03 | -4.73 |
| CCOc1cc(N2CCC(O)CC2)ccc1Nc1ncc2c(n1)N(C)c1ccccc1C(=O)N2C [XMD8-92] | -5.98 | -5.18 |
